pKi: −log10 of the molar value.

This test concerns the target T1, Thymidine phosphorylase (Homo sapiens, UniProt P19971).
T1 sequence (P19971 whole entry): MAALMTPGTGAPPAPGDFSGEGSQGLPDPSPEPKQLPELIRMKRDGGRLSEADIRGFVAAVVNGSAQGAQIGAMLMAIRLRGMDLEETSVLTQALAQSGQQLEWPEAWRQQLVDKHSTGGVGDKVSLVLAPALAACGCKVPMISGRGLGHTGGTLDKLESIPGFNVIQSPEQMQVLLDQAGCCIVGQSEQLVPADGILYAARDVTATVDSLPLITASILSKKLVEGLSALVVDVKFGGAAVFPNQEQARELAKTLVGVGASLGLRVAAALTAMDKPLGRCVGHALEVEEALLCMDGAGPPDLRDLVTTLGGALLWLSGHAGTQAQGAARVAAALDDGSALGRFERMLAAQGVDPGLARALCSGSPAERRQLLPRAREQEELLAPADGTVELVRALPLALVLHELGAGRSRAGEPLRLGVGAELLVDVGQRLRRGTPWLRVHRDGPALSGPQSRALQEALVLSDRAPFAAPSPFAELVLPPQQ
Nature of the test: Binding affinity towards recombinant thymidine phosphorylase TP.
A word on the pKi: it is −log10 of the Ki, conventionally taken in molar units. In the case of `Nc1cc2[nH]c(=O)[nH]c(=O)c2s1`, the pKi was less than 3.52. Under `N=C(N)Nc1cc2[nH]c(=O)[nH]c(=O)c2s1` stands less than 2.62; under `Nc1csc2c(=O)[nH]c(=O)[nH]c12`, less than 3.22.

These data come from ChEMBL document CHEMBL1136409, “Design of novel N-(2,4-dioxo-1,2,3,4-tetrahydro-thieno[3,2-d]pyrimidin-7-yl)-guanidines as thymidine phosphorylase inhibitors, and flexible docking to a homology model” (Bioorg Med Chem Lett, 2003).
